Results reported in patent publication US9302999B2, “Substituted triazoles as herbicides” (E. I. DU PONT DE NEMOURS AND COMPANY, priority 2012, dated 2016).

How the values were obtained:
Type in all cases: in vivo
[1] = test system: galium (catchweed bedstraw, Galium aparine); test: Test C pre-/postemergence: galium
Excerpt: (§1) Seeds of plant species selected from blackgrass (Alopecurus myosuroides), bromegrass, downy (downy bromegrass, Bromus tectorum), foxtail, green (green foxtail, Setaria viridis), ryegrass, Italian (Italian ryegrass, Lolium multiflorum), winter wheat (Triticum aestivum), wild oat (Avena fatua), galium (catchweed bedstraw, Galium aparine), bermudagrass (Cynodon dactylon), surinam grass (Brachiaria decumbens), cocklebur (common cocklebur, Xanthium strumarium), corn (Zea mays), large crabgrass (Digitaria sanguinalis), woolly cupgrass (Eriochloa villosa), foxtail, giant (giant foxtail, Setaria faberii), goosegrass (Eleusine indica), johnsongrass (Sorghum halepense), kochia (Kochia scoparia), lambsquarters (Chenopodium album), morningglory (Ipomoea coccinea), nightshade (eastern black nightshade, Solanum ptycanthum), nutsedge, yellow (yellow nutsedge, Cyperus esculentus), pigweed (Amaranthus retroflexus), ragweed (common ragweed, Ambrosia elation), soybean (Glycine max), common (oilseed) sunflower (Helianthus annuus), Russian thistle (Salsola kali) and velvetleaf (Abutilon theophrasti) were planted into a blend of loam soil and sand and treated preemergence with test chemicals formulated in a non-phytotoxic solvent mixture which included a surfactant.
(§2) At the same time, plants selected from these crop and weed species and also barley (winter barley, Hordeum vulgare), canarygrass (Phalaris minor), chickweed (common chickweed, Stellaria media) windgrass (Apera spica-venti) and deadnettle (henbit deadnettle, Lamium amplexicaule) were planted in pots containing Redi-Earth® planting medium (Scotts Company, 14111 Scottslawn Road, Marysville, Ohio 43041) comprising spaghnum peat moss, vermiculite, wetting agent and starter nutrients and treated with postemergence applications of test chemicals formulated in the same manner. Plants ranged in height from 2 to 18 cm (1- to 4-leaf stage) for postemergence treatments.
(§3) Treated plants and controls were maintained in a greenhouse for 13 to 15 days, after which time all species were compared to controls and visually evaluated. Plant response ratings, summarized in Table C, are based on a scale of 0 to 100 where 0 is no effect and 100 is complete control. A dash (-) response means no test result.

[2] = test system: nightshade (eastern black nightshade, Solanum ptycanthum); test: Test C pre-/postemergence: nightshade; conditions: Preemergence
Excerpt: as §1, §2, §3

[3] = test system: foxtail, green (green foxtail, Setaria viridis); test: Test C pre-/postemergence: foxtail, green
Excerpt: as §1, §2, §3

[4] = test system: wild oat (Avena fatua); test: Test C pre-/postemergence: wild oat
Excerpt: as §1, §2, §3

[5] = test system: velvetleaf (Abutilon theophrasti); test: Test A pre-/postemergence: velvetleaf
Outline: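 Injury was scored visually on a 0 (no effect) to 100 (complete control) scale versus untreated controls roughly ten days after treatment in the greenhouse. Compounds, formulated in surfactant-containing non-phytotoxic solvent, went on as soil-directed preemergence spray or postemergence to one- to two-leaf plants 2–10 cm tall.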

[6] = test system: velvetleaf (Abutilon theophrasti); test: Test C pre-/postemergence: velvetleaf
Outline: (§4)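 Visual injury scored 0–100 (100 = complete control) against untreated controls after 13–15 greenhouse days. Surfactant-containing solvent formulations applied either to soil after sowing (loam/sand) or over 1- to 4-leaf plants, 2–18 cm tall.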

[7] = test system: pigweed (Amaranthus retroflexus); test: Test C pre-/postemergence: pigweed
Outline: as §4

[8] = test system: winter wheat (Triticum aestivum); test: Test C pre-/postemergence: winter wheat
Outline: as §4

[9] = Postemergence, 31 g ai/ha, scale 0 to 100 (0 no effect, 100 complete control)
[10] = Postemergence, 62 g ai/ha, scale 0 to 100 (0 no effect, 100 complete control)
[11] = Postemergence, 125 g ai/ha, scale 0 to 100, 0 no effect, 100 complete control
[12] = Postemergence, 250 g ai/ha, scale 0 to 100
[13] = Preemergence, 31 g ai/ha, scale of 0 to 100, 0 is no effect, 100 is complete control
[14] = Preemergence, 62 g ai/ha, scale of 0 to 100, 0 is no effect, 100 is complete control
[15] = Preemergence, 125 g ai/ha, scale 0 to 100, 0 no effect, 100 complete control
[16] = Preemergence, 250 g ai/ha, scale 0 to 100, 0 no effect, 100 complete control
[17] = 31 g ai/ha, scale of 0 to 100, 0 is no effect, 100 is complete control
[18] = 62 g ai/ha, scale of 0 to 100, 0 is no effect, 100 is complete control
[19] = 125 g ai/ha, scale 0 to 100, 0 no effect, 100 complete control
[20] = 250 g ai/ha, scale 0 to 100, 0 no effect, 100 complete control

Cc1nn(-c2ccc(C(F)(F)F)cn2)nc1Cc1cccc(C(F)(F)F)c1 [Compound 106]
5: Plant response rating, Galium [1, 13] | Plant response rating, Velvetleaf [6, 9] | Plant response rating, Wheat [8, 16]
30: Plant response rating, Oat, Wild [4, 10] | Plant response rating, Wheat [8, 10] | Plant response rating, Wheat [8, 11]
90: Plant response rating, Galium [1, 16] | Plant response rating, Nightshade [2, 19] | Plant response rating, Foxtail, Green [3, 13]
75: Plant response rating, Nightshade [2, 18]
45: Plant response rating, Oat, Wild [4, 11] | Plant response rating, Oat, Wild [4, 12] | Plant response rating, Oat, Wild [4, 14] | Plant response rating, Velvetleaf [6, 10]
85: Plant response rating, Foxtail, Green [3, 12] | Plant response rating, Pigweed [7, 13]
0: Plant response rating, Nightshade [2, 17] | Velvetleaf plant response rating ([5]; Preemergence, 1000 g ai/ha, 0 to 100 scale, 0 is no effect, 100 is complete control) | Plant response rating, Velvetleaf [6, 13] | Plant response rating, Velvetleaf [6, 14] | Plant response rating, Velvetleaf [6, 15] | Plant response rating, Wheat [8, 13] | Plant response rating, Wheat [8, 14] | Plant response rating, Wheat [8, 15]
70: Plant response rating, Foxtail, Green [3, 11] | Plant response rating, Oat, Wild [4, 15] | Velvetleaf plant response rating ([5]; Postemergence, 1000 g ai/ha, visual rating on 0 to 100 scale (0 no effect, 100 complete control), approximately ten days)
80: Plant response rating, Galium [1, 11] | Plant response rating, Galium [1, 12] | Plant response rating, Oat, Wild [4, 16]
100: Plant response rating, Nightshade [2, 20] | Plant response rating, Pigweed [7, 15] | Plant response rating, Pigweed [7, 16]
95: Plant response rating, Foxtail, Green [3, 14] | Plant response rating, Foxtail, Green [3, 15] | Plant response rating, Foxtail, Green [3, 16] | Plant response rating, Pigweed [7, 9]
50: Plant response rating, Foxtail, Green [3, 9] | Plant response rating, Foxtail, Green [3, 10]
65: Plant response rating, Galium [1, 9] | Plant response rating, Galium [1, 10] | Plant response rating, Velvetleaf [6, 11] | Plant response rating, Velvetleaf [6, 12]
60: Plant response rating, Galium [1, 15]
98: Plant response rating, Pigweed [7, 10] | Plant response rating, Pigweed [7, 11] | Plant response rating, Pigweed [7, 12] | Plant response rating, Pigweed [7, 14]
10: Plant response rating, Galium [1, 14] | Plant response rating, Oat, Wild [4, 9] | Plant response rating, Oat, Wild [4, 13] | Plant response rating, Velvetleaf [6, 16] | Plant response rating, Wheat [8, 9]

Cc1nn(-c2ccc(C(F)(F)F)cn2)nc1Oc1ccnc(C(F)(F)F)c1 [Compound 23]
5: Plant response rating, Oat, Wild [4, 9] | Plant response rating, Velvetleaf [6, 13]
70: Plant response rating, Pigweed [7, 9]
50: Plant response rating, Nightshade [2, 17] | Plant response rating, Foxtail, Green [3, 12] | Plant response rating, Velvetleaf ([5]; Preemergence, 125 g ai/ha, 0 to 100 scale (0 no effect, 100 complete control)) | Plant response rating, Velvetleaf [6, 12]
98: Plant response rating, Nightshade [2, 20]
80: Plant response rating, Galium [1, 13] | Plant response rating, Oat, Wild [4, 14] | Plant response rating, Oat, Wild [4, 15] | Plant response rating, Velvetleaf [6, 15] | Plant response rating, Pigweed [7, 11]
0: Plant response rating, Wheat [8, 13] | Plant response rating, Wheat [8, 14]
15: Plant response rating, Velvetleaf [6, 9] | Plant response rating, Wheat [8, 11]
100: Plant response rating, Galium [1, 15] | Plant response rating, Galium [1, 16] | Plant response rating, Foxtail, Green [3, 13] | Plant response rating, Foxtail, Green [3, 14] | Plant response rating, Foxtail, Green [3, 15] | Plant response rating, Foxtail, Green [3, 16] | Plant response rating, Oat, Wild [4, 16] | Velvetleaf plant response rating ([5]; Postemergence, 500 g ai/ha, visual rating on 0 to 100 scale (0 no effect, 100 complete control), approximately ten days) | Plant response rating, Velvetleaf ([5]; Preemergence, 500 g ai/ha, 0 to 100 scale, 0 is no effect, 100 is complete control) | Plant response rating, Velvetleaf [6, 16] | Plant response rating, Pigweed [7, 13] | Plant response rating, Pigweed [7, 14] | Plant response rating, Pigweed [7, 15] | Plant response rating, Pigweed [7, 16]
30: Plant response rating, Foxtail, Green [3, 10] | Plant response rating, Wheat [8, 12]
95: Plant response rating, Galium [1, 14] | Plant response rating, Nightshade [2, 19] | Plant response rating, Pigweed [7, 12]
35: Plant response rating, Oat, Wild [4, 11] | Plant response rating, Oat, Wild [4, 12] | Plant response rating, Wheat [8, 16]
20: Plant response rating, Wheat [8, 15]
25: Plant response rating, Velvetleaf [6, 10] | Plant response rating, Velvetleaf [6, 14]
90: Plant response rating, Galium [1, 11] | Plant response rating, Galium [1, 12] | Plant response rating, Nightshade [2, 18] | Velvetleaf plant response rating ([5]; Postemergence, 125 g ai/ha, 0 to 100 scale, 0 is no effect, 100 is complete control)
40: Plant response rating, Velvetleaf [6, 11]
10: Plant response rating, Oat, Wild [4, 10] | Plant response rating, Wheat [8, 9] | Plant response rating, Wheat [8, 10]
45: Plant response rating, Foxtail, Green [3, 11] | Plant response rating, Oat, Wild [4, 13]
85: Plant response rating, Galium [1, 9] | Plant response rating, Galium [1, 10]
